Test results as given in patent US20240092744A1, “TRICYCLIC COMPOUND, AND PREPARATION METHOD THEREFOR AND MEDICAL USE THEREOF” (THE NATIONAL INSTITUTES OF PHARMACEUTICAL R&D CO., LTD., priority 2020, published 2024).

Legend:
[1] = system: noninfectious uveitis animal model; experiment: Therapeutic effect in lipopolysaccharide-induced noninfectious uveitis animal model (eye drops); type: in vivo, Female lewis rats
Method: Female lewis rats were used as the research subjects. Lewis rats (Vital River) were randomly divided into groups (4 animals per group, a total of 8 eyes). The groups are as follows: normal control group, model control group, and example administration group. The inflammation model was established in these groups except for the normal control group.
Formulation of eye drops: • (1) Formulation of drug vehicle stock solution: […] of Na2HPO4.12H2O (Xilong Scientific, 9009012-01-09), 19 mg of NaH2PO4.2H2O (Xilong Scientific, 9009013-01-09) and 9500 mg of β-cyclodextrin (Sigma, E1930253) were precisely weighed and dissolved in 30 mL sterile water for injection (Beijing CR Double-Crane), followed by addition of […] of PEG-400 (Solarbio, 222U011). The solution was mixed well, and made up to 50 mL with water for injection. • (2) Formulation of drug solution: 10 mg of the compound of Example 2 of the present invention was weighed and dissolved in 1 mL of the vehicle stock solution, and the resulting solution was made up to 2 mL with water for injection. The content of each substance is as follows: Na2HPO4.12H2O 0.83%, NaH2PO4.2H2O 0.017%, β-cyclodextrin 9.5%, PEG-400 5.0%, active compound 0.5%. • (3) The pH value of the formulated drug solution was determined by pH test paper. If the pH value was not within 7.3±0.05, then it was adjusted to this range with 1 N HCl or 1 N NaOH. […]
The animal model was a noninfectious uveitis animal model established by intraperitoneal injection of lipopolysaccharide (derived from Escherichia coli, 055:B5, Sigma, L2880-100MG, injection dose: 2 mg/kg). […] The ocular inflammation of the animals in each group was examined with a slit lamp microscope (Jiangxi Jiangfeng, LYL-S), and evaluated according to the McDonald-Shadduck scoring system (GB/T 28538-2012).
The animals were sacrificed, and the bilateral eyeballs were enucleated. […] Quantitative analysis of total protein in aqueous humor was performed on the supernatant by a BCA protein quantification kit (Beyotime, P0010). […]

[2] = Determination of aldehyde capture rate (nonenal as model aldehyde, HPLC quantification); details: for Aldehyde consumption (100%): 0.05 mM compound, 0.025 mM nonenal, room temperature; for Capture rate (slope of the capture curve per unit time): higher absolute value of the slope = higher capture rate
Method: In the aldehyde capture test disclosed in the present invention, the stable lipid metabolite, nonenal, was used as the model aldehyde to react with the compound of the Example. The specific protocol was as follows.
0.05 mM of the compounds of the Examples of the present invention were precisely weighed respectively and dissolved in 1.2 mL of a mixed solution (v/v=1:1) of triolein (Aladdin, G105172-5g) and linoleic acid (Aladdin, L100442-25g), respectively. 2.5 mL of PBS (Solarbio, P1020) solution containing 20% Captisol® (Aladdin, Cl25030-25 g) was added, and the solution was stirred at room temperature overnight. After the example compound was completely dissolved, 0.025 mM nonenal (Sigma, 255653-5G) was added, and the solution was stirred vigorously at room temperature. […] The solution was mixed vigorously by vortex for 2 minutes, and centrifuged at a low speed of 1000 r/min for 3 minutes. The supernatant was transferred to an injection vial. The nonenal in the reaction mixture was analyzed quantitatively by high performance liquid chromatography. The adduct resulted from the example compound of the present invention and nonenal was analyzed qualitatively by high performance liquid chromatography-mass spectrometry.
Liquid Chromatograph: Waters I Class;
Column: ACQUITY UPLC HSS T3 1.8 μm;
Column temperature: 40° C.;
Liquid chromatography condition: mobile phase A: acetonitrile containing 0.1% formic acid; B: water containing 0.1% formic acid;
Injection volume: 0.5 mL.
Gradient of the mobile phases: […]
In the developed detection method, the retention time of the model aldehyde nonenal was 2.42 minutes. • Mass spectrometry conditions: • Mass spectrometer: Waters TQ-S micro • Ion source: ESI^+ • Capillary voltage: 0.5 kV • Cone voltage: 10V • Source temperature: 150° C. • Degassing temperature: 500° C., degassing flow: 1000 L/Hr • SIM mode • m/z: 225.24 [(mExample 1−OH)+H]^+, 365.42 [madduct 1+H]^+
The time-varying diagram of the capture reaction of the compounds of the examples of the present invention to nonenal is shown in FIG. 1.

[3] = system: allergic conjunctivitis animal model; experiment: Therapeutic effect in C48/80-induced allergic conjunctivitis animal model; type: in vivo, Female Wistar rats; details: Wistar rats, 10 μL per eye, examined 20 minutes after administration
Excerpt: C48/80 is a polymer formed by the condensation of N-methyl-p-methoxyphenethylamine with formaldehyde, which acts directly on G protein and induces mast cell degranulation. After degranulation, the mast cell releases active substances such as histamine and kinin, which can cause acute type I allergic reactions such as telangiectasia and enhanced permeability. It can cause allergic conjunctivitis if applied topically to the ocular surface.
Female Wistar rats were used as the research subjects. Wistar rats (Vital River) were randomly divided into groups (5 animals per group, a total of 10 eyes). The groups are as follows: normal control group, model control group, positive drug group, and example administration group. The inflammation model was established in these groups except for the normal control group. Emedastine Difumarate Eye Drops (Emadine®, Alcon, H20181192) was used as the positive drug. Model establishment, administration and evaluation processes were as follows. […]
After 10 minutes of stimulation, different drug treatments were carried out according to the group settings. […] The clinical score was evaluated individually on the eyes of each animal according to the McDonald-Shadduck scoring system (GB/T 28538-2012). […]

| SMILES | Ocular score (McDonald-Shadduck ocular inflammation score) ([1]; 0.5% eye drops, 20 μL/eye, 24 hours after LPS modeling, mean ± standard deviation, model control 17.0 ± 6.4, normal control 4.5 ± 0.8) | Protein concentration in aqueous humor ([1]; 0.5% eye drops, 20 μL/eye, 24 hours after LPS modeling, mean ± standard deviation, model control 1062.7 ± 423.6, normal control 225.5 ± 65.4) [µg/mL] | Therapeutic effect in ocular inflammation animal model (in words) ([1]; LPS-induced uveitis, Lewis rats, eye drops) | Aldehyde consumption (100%) ([2]; 135 minutes) [%] | Capture rate (slope of the capture curve per unit time) ([2]; 135 minutes) | Aldehyde consumption (100%) ([2]; 180 minutes) [%] | Capture rate (slope of the capture curve per unit time) ([2]; 180 minutes) | Therapeutic effect on allergic conjunctivitis (McDonald-Shadduck score, FIG. 2, in words) [3] |
| --- | --- | --- | --- | --- | --- | --- | --- | --- |
| Cn1c2ccccc2c2cc(N)c(C(C)(C)O)nc21 [Example 2, 2-(3-Amino-9-methyl-9H-pyrido[2,3-b]indol-2-yl)propan-2-ol] | 8.6 ± 1.1 | 376.4 ± 164.0 | showing a therapeutic effect | 43.48 | −0.34 | 57.75 | −0.31 |  |
| CC(C)(O)c1cc2c(cc1N)Oc1ccccc1O2 [Example 4, 2-(3-Aminodibenzo[b,e][1,4]dioxin-2-yl)propan-2-ol] |  |  |  | 38.33 | −0.27 | 48.10 | −0.23 | good therapeutic effect |
